Measurements taken from patent publication US4889860A (Nova Pharmaceutical Corporation, priority 1987, dated 1989).
Read-outs that look alike come from different tables or passages of the source.

Columns and labels:
[1] = biological target: T1, mu-type opioid receptor (Rattus norvegicus, UniProt P33535); test: inhibition of specific [^3 H] DAGO binding to rat forebrain membranes
T1 construct: using rat forebrain membranes; from tissue; host or cells: rat forebrain membranes
Method: (§1) The interaction of some of the novel compounds with mu and delta-type opioid receptors present in brain membranes was examined in vitro. […] DAGO (mu-type receptor) or [^3 H] DADLE (delta-type receptor) was determined using rat forebrain membranes. Computer assisted analysis (EBDA) was used to determine apparent Ki values for the various compounds.
(§2) Values represent the MEAN±S.E.M. of the Ki(nM) for each compound to inhibit specific binding of the indicated ligand to rat brain membranes. The values are from two-five separate experiments and were calculated according to the method of Cheng and Prusoff [Biochem. Pharmacol. 1973, 22, 3099-3108] together with the EBDA Program. Numbers in parentheses are the mean Hill coefficients for each compound to inhibit ligand binding.
as §2, with “two.div.seven” for “two-five”, “Prusoff” for “Prusoff [Biochem. Pharmacol. 1973, 22, 3099-3108]”, “program.” for “Program.”, “binding. N.D.=not determined” for “binding.”
(§3) The interaction of some of the novel compounds with mu, delta and kappa - type opioid receptors present in brain membranes was examined in vitro. […] DAGO (mu-type receptor), or [^3 H] DADLE (Delta-type receptor) using rat forebrain membranes and [^3 H] EKC (kappa-type receptor) using guiniea pig cerebellum membrane was determined. Computer assisted analysis (EBDA) was used to determine apparent Ki values for the various compounds.
(§4) The values represent the MEAN±S.E.M. of the Ki(nM) for each compound to inhibit specific binding of the indicated ligand. Each value represents the mean of three individual experiments performed on separate occasions.

[2] = biological target: delta-type opioid receptor (Rattus norvegicus, UniProt P33533); test: inhibition of specific [^3 H] DADLE binding to rat forebrain membranes
Method: as §1, §2
as §2, with “two.div.seven” for “two-five”, “Prusoff” for “Prusoff [Biochem. Pharmacol. 1973, 22, 3099-3108]”, “program.” for “Program.”, “binding. N.D.=not determined” for “binding.”
as §3, §4

[3] = biological target: T2, kappa-type opioid receptor (Cavia porcellus, UniProt P41144); test: inhibition of specific [^3 H] EKC binding to guinea pig cerebellum membrane
T2 construct: using guiniea pig cerebellum membrane; from tissue; host or cells: guinea pig cerebellum membranes
Method: as §3, §4

[4] = system: oxymorphonazine (OMZ)-induced analgesia; test: antagonism of oxymorphonazine (OMZ)-induced analgesia (tail flick) in rats; format: in vivo, rat; conditions: S.C.; for ED50 / ED100: Rattus norvegicus, sc, Table 8; for ED50: read-out: ED 50, oxymorphonazine antagonism; for ED100: read-out: ED 100, oxymorphonazine antagonism; for Percent Antagonism at 1 Hr / Percent Antagonism at 1.5 Hr / Percent Antagonism at 2 Hr / Percent Antagonism at 3 Hr / Percent Antagonism at 4 Hr / Percent Antagonism at 6 Hr / Percent Antagonism at 8 Hr: dose tested (mg/kg): Naltrexone 0.5, Nalmefene 1.0, XI 10.0, XII 2.5, XIII 0.5, XIV 5.0
Method: The compound of Example XII was evaluated for its potency and duration in the antagonism of oxymorphonazine (OMZ)-induced analgesia. […] Data represent the mean SEM of 4-5 animals per group.
(Cowan A. Trendsin Pharmacology Science, 7:69-72, 1986) With this test the intracerebroventricular administration of bombesin produces a characteristic scratching response.

[5] = system: tail flick response; test: radiant heat tail flick analgesia in rats; format: in vivo, rat
Method: The analgesic properties of the compounds prepared in accordance with Examples III and IV were evaluated in rats using the radiant heat and tail flick paradigm. […] Flick latencies in FIGS. 11-13 were determined at 30 minute intervals through 3.5 h and the data was expressed as a percentage of the maximum possible effect (% MPE). A 15 sec. cut-off latency was used to minimize tissue damage. The values shown are the mean values for 6 rats.
A 15 sec. cut-off latency was used to prevent tissue damage.
The analgesic properties of compounds XXII and XXIII were evaluated in rats using the writhing assay and tail flick paradigm. […] The writhing assay which uses a chemical stimulus to produce pain, is believed to be more sensitive to kappa agonist activity than other measures of analgesia which uses a heat stimulus (Dykstra, L.A. Behavioral Pharmacology: The Current Status, N.Y.: Allan R. Liss. Inc. 1985).

[6] = (Ki) nM, μ receptor (Rat Forebrain), Table 6, [^3 H] DAGO, mean of three experiments
[7] = read-out: (Ki) nM, δ receptor (Rat Forebrain), Table 6, [^3 H] DADLE, mean of three experiments
[8] = Ki, inhibition of specific [^3 H] DAGO binding, Tables 1 and 2, rat brain membranes, MEAN±S.E.M.
[9] = read-out: Ki, inhibition of specific [^3 H] DADLE binding, Tables 1 and 2, rat brain membranes, MEAN±S.E.M.

T2 sequence (P41144 whole entry): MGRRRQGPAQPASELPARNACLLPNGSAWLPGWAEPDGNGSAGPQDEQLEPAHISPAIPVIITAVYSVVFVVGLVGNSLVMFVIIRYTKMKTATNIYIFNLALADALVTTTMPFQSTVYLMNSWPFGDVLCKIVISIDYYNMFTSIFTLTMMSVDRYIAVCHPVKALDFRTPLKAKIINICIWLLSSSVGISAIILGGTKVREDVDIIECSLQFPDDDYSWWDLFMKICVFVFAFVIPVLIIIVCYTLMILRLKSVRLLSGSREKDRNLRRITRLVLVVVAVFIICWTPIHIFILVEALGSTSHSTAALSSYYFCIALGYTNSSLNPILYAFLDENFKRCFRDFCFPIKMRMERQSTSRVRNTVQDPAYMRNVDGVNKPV
T1 sequence (P33535 whole entry): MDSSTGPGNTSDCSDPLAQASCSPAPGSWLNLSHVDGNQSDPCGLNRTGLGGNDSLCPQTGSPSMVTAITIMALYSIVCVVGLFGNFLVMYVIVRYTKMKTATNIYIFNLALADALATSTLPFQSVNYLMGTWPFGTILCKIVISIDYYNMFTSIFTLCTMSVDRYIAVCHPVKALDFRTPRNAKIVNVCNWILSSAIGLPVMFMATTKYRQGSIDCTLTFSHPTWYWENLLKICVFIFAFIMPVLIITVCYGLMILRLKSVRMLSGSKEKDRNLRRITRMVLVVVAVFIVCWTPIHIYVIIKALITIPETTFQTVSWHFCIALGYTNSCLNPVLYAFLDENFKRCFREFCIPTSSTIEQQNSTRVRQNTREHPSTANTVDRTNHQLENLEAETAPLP
delta-type opioid receptor, sequence (P33533 whole entry): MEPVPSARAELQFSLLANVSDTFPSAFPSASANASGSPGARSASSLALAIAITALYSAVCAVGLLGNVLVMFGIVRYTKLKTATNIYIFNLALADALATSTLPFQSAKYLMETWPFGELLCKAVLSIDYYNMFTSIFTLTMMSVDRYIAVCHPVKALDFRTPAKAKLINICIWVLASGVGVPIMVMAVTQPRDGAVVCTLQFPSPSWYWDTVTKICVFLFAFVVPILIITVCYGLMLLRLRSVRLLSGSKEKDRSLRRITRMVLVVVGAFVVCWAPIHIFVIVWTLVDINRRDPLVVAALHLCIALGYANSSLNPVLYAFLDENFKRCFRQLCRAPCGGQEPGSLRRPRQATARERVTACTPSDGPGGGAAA

Structure (SMILES): Oc1ccc2c3c1O[C@H]1C(=NOC45CC6CC(CC(C6)C4)C5)CC[C@@]4(O)[C@@H](C2)N(CC2CC2)CC[C@]314 [Example XXVII, 6-[1-adamantyl]oximino-17-cyclopropylmethyl-4,5 α-epoxy-3,14-dihydroxymorphinan]
- Ki [1, 6]: 5.39 nM
- Ki [2, 7]: 2.63 nM
- Ki [3]: 6.41 nM

Structure (SMILES): Oc1ccc2c3c1O[C@H]1C(=NOCc4ccccc4)CC[C@@]4(O)[C@@H](C2)N(CC2CC2)CC[C@]314 [Example XI, 6-Benzyloximino-17-cyclopropylmethyl-4, 5 α-epoxy-3, 14-dihydroxymorphinan]
- Ki [1, 6]: 0.55 nM
- Ki [1, 8]: 0.55 ± 0.12 nM
- Ki [2, 7]: 0.87 nM
- Ki [2, 9]: 0.7 ± 0.22 nM
- ED50 [4]: 1.2 mg/kg
- ED100 [4]: 13 mg/kg
- Percent Antagonism at 1 Hr [4]: 72%
- Percent Antagonism at 1.5 Hr [4]: 86%
- Percent Antagonism at 2 Hr [4]: 91%
- Percent Antagonism at 3 Hr [4]: 93%
- Percent Antagonism at 4 Hr [4]: 103%
- Percent Antagonism at 6 Hr [4]: 122%
- Percent Antagonism at 8 Hr [4]: 64%

Structure (SMILES): ON=C1CC[C@@]2(O)[C@H]3Cc4ccc(O)c5c4[C@@]2(CCN3CC2CC2)[C@H]1O5 [Example IX, 6-Oximino-17-cyclopropylmethyl-4,5 α-epoxy-3, 14-dihydroxymorphinan]
- Ki [1, 6]: 0.24 nM
- mean Hill coefficient, [^3 H] DAGO binding ([1]; Tables 1 and 2, numbers in parentheses): 0.81
- Ki ([1]; Tables 1 and 2, rat brain membranes, MEAN±S.E.M., read-out: Ki, inhibition of specific [^3 H] DAGO binding): 0.24 ± 0.03 nM
- fold more potent to inhibit specific [^3 H]DAGO binding ([1]; than compound of Example X or XI, or naltrexone): 3 fold
- Ki [2, 7]: 1.64 nM
- Ki [3]: 2.05 nM

Structure (SMILES): Cc1cccc(ON=C2CC[C@@]3(O)[C@H]4Cc5ccc(O)c6c5[C@@]3(CCN4CC3CC3)[C@H]2O6)c1C [Example XV, 6-[2,3-dimethylphenyl]oximino-17-cyclopropylmethyl-4,5 α-epoxy-3,14-dihydroxymorphinan]
- Ki [1, 6]: 1.19 nM
- Ki [2, 7]: 1.23 nM

Structure (SMILES): CN1CC[C@]23c4c5ccc(O)c4O[C@H]2[C@@H](O)C=C[C@H]3[C@H]1C5 [Morphine, morphine, reference compound]
- ED50, tail flick analgesia ([5]; S.C., 30 min): 4.91 µmol/kg
- dose producing approximately equal analgesia ([5]; S.C., tail flick, through 3.5 hr): ~10.5 µmol/kg
- ED50, Antagonism of the Tail-Flick Response in the Rat ([5]; Table 7): 2.60 mg/kg
- antagonism of tail-flick response to heat ([5]; rat): effectively antagonized the tail-flick response to a heat stimulus in the rat

Structure (SMILES): N=C(N)c1ccc(ON=C2CC[C@@]3(O)[C@H]4Cc5ccc(O)c6c5[C@@]3(CCN4CC3CC3)[C@H]2O6)cc1 [Example XX, 6-[4-iminoaminomethylphenyl]oximino-17-cyclopropylmethyl-4,5 α-epoxy-3,14-dihydroxymorphinan]
- Ki ([1]; read-out: (Ki) nM, μ receptor (Rat Forebrain), Table 6, [^3 H] DAGO, mean of three experiments): 0.73 nM
- Ki [2, 7]: 1.67 nM
- Ki ([3]; read-out: (Ki) nM, κ receptor (GP Cerebellum), Table 6, [^3 H] EKC, mean of three experiments): 0.64 nM

Structure (SMILES): Oc1ccc2c3c1O[C@H]1C(=NOc4ccc(C(F)(F)F)cc4)CC[C@@]4(O)[C@@H](C2)N(CC2CC2)CC[C@]314 [Example XVII, 6-[4-trifluoromethylphenyl]oximino-17-cyclopropylmethyl-4,5 α-epoxy-3,14-dihydroxymorphinan]
- Ki [1, 6]: 26.4 nM
- Ki [2, 7]: 34.4 nM

Structure (SMILES): CON=C1CC[C@@]2(O)[C@H]3Cc4ccc(O)c5c4[C@@]2(CCN3CC2CC2)[C@H]1O5 [Example X, 6-Methyloximino-17-cyclopropylmethyl-4,5 α-epoxy-3, 14-dihydroxymorphinan]
- Ki [1, 8]: 0.66 ± 0.06 nM
- Ki [2, 9]: 1.8 ± 0.22 nM

Structure (SMILES): CON=C1CC[C@@]2(O)[C@H]3Cc4ccc(O)c5c4[C@@]2(CCN3C)[C@H]1O5 [Example II, 6-Methyloximino-17-methyl-4,5 α-epoxy-3, 14-dihydroxymorphinan]
- Ki [1, 8]: 0.97 ± 0.1 nM
- Ki [2, 9]: 3.44 ± 0.83 nM

Structure (SMILES): NCc1ccc(ON=C2CC[C@@]3(O)[C@H]4Cc5ccc(O)c6c5[C@@]3(CCN4CC3CC3)[C@H]2O6)cc1 [Example XXIV, 6-[4-aminomethylphenyl]oximino-17-cyclopropylmethyl-4,5α-epoxy-3,14-dihydroxymorphinan]
- Ki [1, 6]: 0.34 nM
- Ki [2, 7]: 1 nM
- Ki [3]: 0.71 nM

Structure (SMILES): Oc1ccc2c3c1O[C@H]1C(=NOC4CCCC4)CC[C@@]4(O)[C@@H](C2)N(CC2CC2)CC[C@]314 [Example XXVI, 6-cyclopentyloximino-17-cyclopropylmethyl-4,5 α-epoxy-3,14-dihydroxymorphinan]
- Ki [1, 6]: 0.52 nM
- Ki [2, 7]: 0.04 nM
- Ki [3]: 7.94 nM

Structure (SMILES): Cc1ccc(ON=C2CC[C@@]3(O)[C@H]4Cc5ccc(O)c6c5[C@@]3(CCN4CC3CC3)[C@H]2O6)cc1C [Example XIII, 6-[3,4-dimethylphenyl]oximino-17-cyclopropylmethyl-4,5α-epoxy-3,14-dihydroxymorphinan]
- Ki [1, 6]: 1.64 nM
- Ki [2, 7]: 2.69 nM
- ED50 [4]: 0.09 mg/kg
- ED100 [4]: 0.74 mg/kg
- Percent Antagonism at 1 Hr [4]: 77%
- Percent Antagonism at 1.5 Hr [4]: 72%
- Percent Antagonism at 2 Hr [4]: 67%
- Percent Antagonism at 3 Hr [4]: 79%
- Percent Antagonism at 4 Hr [4]: 72%
- Percent Antagonism at 6 Hr [4]: 71%
- Percent Antagonism at 8 Hr [4]: 97%

Structure (SMILES): Oc1ccc2c3c1O[C@H]1C(=NOC4CCCc5ccccc54)CC[C@@]4(O)[C@@H](C2)N(CC2CC2)CC[C@]314 (stereo partly drawn) [Example XIV, 6-[1,2,3,4-tetrahydronaphth-1-yl]oximino-17-cyclopropylmethyl-4,5 α-epoxy-3,14-dihydroxymorphinan]
- Ki [1, 6]: 2.76 nM
- Ki [2, 7]: 0.6 nM
- Ki [3]: 4.66 nM
- ED50 [4]: 0.02 mg/kg
- ED100 [4]: 6.73 mg/kg
- Percent Antagonism at 1 Hr [4]: 80%
- Percent Antagonism at 1.5 Hr [4]: 84%
- Percent Antagonism at 2 Hr [4]: 82%
- Percent Antagonism at 3 Hr [4]: 84%
- Percent Antagonism at 4 Hr [4]: 83%
- Percent Antagonism at 6 Hr [4]: 41%
- Percent Antagonism at 8 Hr [4]: 20%

Structure (SMILES): CC(C)(C)ON=C1CC[C@@]2(O)[C@H]3Cc4ccc(O)c5c4[C@@]2(CCN3CC2CC2)[C@H]1O5 [Example XVI]
- Ki [1, 6]: 1.01 nM
- Ki [2, 7]: 0.41 nM
- Ki [3]: 7.39 nM

Structure (SMILES): O=C1c2ccccc2C(=O)N1Cc1ccc(ON=C2CC[C@@]3(O)[C@H]4Cc5ccc(O)c6c5[C@@]3(CCN4CC3CC3)[C@H]2O6)cc1 [Example XXI, 6-[4-phthalimidomethylphenyl]oximino-17-cyclopropylmethyl-4,5 α-epoxy-3,14-dihydroxymorphinan]
- Ki [1, 6]: 7.35 nM
- Ki [2, 7]: 2.57 nM
- Ki [3]: 18 nM

Structure (SMILES): Oc1ccc2c3c1O[C@H]1C(=NOC4CCCCC4)CC[C@@]4(O)[C@@H](C2)N(CC2CC2)CC[C@]314 [Example XXV, 6-cyclohexyloximino-17-cyclopropylmethyl-4,5 α-epoxy-3,14-dihydroxymorphinan]
- Ki [1, 6]: 1.1 nM
- Ki [2, 7]: 0.08 nM
- Ki [3]: 9.76 nM

Structure (SMILES): N#Cc1ccc(ON=C2CC[C@@]3(O)[C@H]4Cc5ccc(O)c6c5[C@@]3(CCN4CC3CC3)[C@H]2O6)cc1 [XVIII, 6-[4-cyanophenyl]oximino-17-cyclopropylmethyl-4,5α-epoxy-3,14-dihydroxymorphinan]
- Ki [1, 6]: 2.07 nM
- Ki [2, 7]: 1.64 nM
- Ki [3]: 12.9 nM

Structure (SMILES): Oc1ccc2c3c1O[C@H]1C(=NOc4ccccc4C(F)(F)F)CC[C@@]4(O)[C@@H](C2)N(CC2CC2)CC[C@]314 [XIX, 6-[2-trifluoromethylphenyl]oximino-17-cyclopropylmethyl-4,5 α-epoxy-3,14-dihydroxymorphinan]
- Ki [1, 6]: 3.77 nM
- Ki [2, 7]: 1.29 nM
